Columns and labels:
Type in all cases: cell-based, dog
[1] = tested on: canine cartilage; assay: Protein synthesis, 35S-methionine and 35S-cysteine incorporation into cartilage matrix; conditions: no catabolic stimuli
Experimental: (§1) To assess the potential effect of n-3 fatty acids on protein and proteoglycan metabolism in canine cartilage, cultures were set up as described in Example 1 except for the final 4 days of culture, no catabolic stimuli were added (i.e., all “control” cultures). During the final 24 hours of culture (1) ^35SO4, or (ii) ^35S-methionine and ^35S-cysteine, were added to the medium to radiolabel newly synthesized proteoglycans and proteins, respectively. The incorporation of radiolabel into the cartilage matrix was measured at the termination of culture. No attempt was made to quantitate loss of radiolabelled material from the cartilage over the 24-hour labeling period. The mean and standard deviation of the incorporation of ^35SO4 (“PG”) or ^35S-methionine and ^35S-cysteine (“PROT”) as DPM/mg wet weight are shown in Table 5 below, […]

[2] = tested on: canine articular cartilage explants; assay: Glycosaminoglycan (GAG) release from cultured canine cartilage explants
Experimental: This example illustrates the release of glycosaminoglycan elicited by omega-3 fatty acids in cultured canine cartilage tissue.
Articular cartilage was obtained from left and right stifles (both femoral condyles and tibial plateau) of dogs. Cartilage explants cultured for 3 days in medium with 10% fetal bovine serum, then washed 3 times in serum free medium. Explants then cultured for 6 days in serum free medium containing 0, 100 or 300 μg/ml n3 fatty acid (EPA, ALA or DHA). After this period in fatty acid medium, all explants were washed 3 times in fatty acid free/serum free medium. Explants were then cultured individually for 4 days in 1 ml of fatty acid and serum free medium containing no additives (C), 10^−6M retinoic acid (RA) or 50 ng/ml oncostatin M (OSM). Note that not all treatments were possible on all dogs because of cartilage availability. The release of proteoglycan into the medium (μg/mg wet weight) was measured at the termination of culture. In the tables below, the mean and standard deviation of glycosaminoglycan (GAG) release for the triplicate cultures for each of the 4 dogs are given. In addition, the media lactate (μg/mg wet weight) concentrations were given for each treatment.

[3] = tested on: canine cartilage; assay: Proteoglycan synthesis, 35SO4 incorporation into cartilage matrix; conditions: no catabolic stimuli
Experimental: as §1

Row | SMILES | PROT Mean (incorporation of 35S-methionine and 35S-cysteine) ([1]; 100 μg/ml) [DPM/mg wet weight] | PROT Mean (incorporation of 35S-methionine and 35S-cysteine) ([1]; 300 μg/ml) [DPM/mg wet weight] | GAG Mean ([2]; Dog 2, C, 100 μg/ml) | GAG Mean ([2]; Dog 2, C, 300 μg/ml) | GAG Mean ([2]; Dog 2, OSM, 100 μg/ml) [μg/mg wet weight] | GAG Mean ([2]; Dog 2, OSM, 300 μg/ml) [μg/mg wet weight] | GAG Mean ([2]; Dog 3, C, 100 μg/ml) [μg/mg wet weight] | GAG Mean ([2]; Dog 3, C, 300 μg/ml) [μg/mg wet weight] | GAG Mean ([2]; Dog 3, OSM, 100 μg/ml) [μg/mg wet weight] | GAG Mean ([2]; Dog 3, OSM, 300 μg/ml) [μg/mg wet weight] | GAG Mean ([2]; Dog 3, RA, 100 μg/ml) [μg/mg wet weight] | GAG Mean ([2]; Dog 3, RA, 300 μg/ml) [μg/mg wet weight] | GAG Mean ([2]; Dog 4, C, 100 μg/ml) [μg/mg wet weight] | GAG Mean ([2]; Dog 4, C, 300 μg/ml) [μg/mg wet weight] | GAG Mean ([2]; Dog 4, OSM, 100 μg/ml) [μg/mg wet weight] | GAG Mean ([2]; Dog 4, OSM, 300 μg/ml) [μg/mg wet weight] | GAG Mean ([2]; Dog 4, RA, 100 μg/ml) [μg/mg wet weight] | GAG Mean ([2]; Dog 4, RA, 300 μg/ml) [μg/mg wet weight] | PG Mean (incorporation of 35SO4) ([3]; 100 μg/ml) [DPM/mg wet weight] | PG Mean (incorporation of 35SO4) ([3]; 300 μg/ml) [DPM/mg wet weight] | also measured
1 | CC/C=C\C/C=C\C/C=C\C/C=C\C/C=C\CCCC(=O)O [EPA, Eicosapentaenoic acid] | 442.0 | 504.0 | .340 μg/mg wet weight | .573 μg/mg wet weight | 5.25 | 2.83 | 1.673 | 1.567 | 17.85 | 8.1 | 16.223 | 1.537 | 2.687 | 2.1 | 15.883 | 13.493 | 14.393 | 9.093 | 537.333 | 275.667 | GAG Mean ([2]; Dog 1, C (no additives), 100 μg/ml): 1.590 μg/mg wet weight; GAG Mean ([2]; Dog 1, C (no additives), 300 μg/ml): 1.036 μg/mg wet weight; GAG Mean ([2]; Dog 1, OSM (50 ng/ml oncostatin M), 100 μg/ml): 6.293 μg/mg wet weight; GAG Mean ([2]; Dog 1, OSM, 300 μg/ml): 2.167 μg/mg wet weight; GAG Mean ([2]; Dog 1, RA (10^−6M retinoic acid), 100 μg/ml): 8.677 μg/mg wet weight; GAG Mean ([2]; Dog 1, RA, 300 μg/ml): 1.593 μg/mg wet weight
2 | CC/C=C\C/C=C\C/C=C\CCCCCCCC(=O)O [ALA, alpha-linolenic acid] | 503.667 | 393.667 | 1.12 μg/mg wet weight | .993 μg/mg wet weight | 8.497 | 6.42 | 2.117 | 2.447 | 22.033 | 23.467 | 20.44 | 24.467 | 2.103 | 1.533 | 11.7 | 19.557 | 12.547 | 14.093 | 246.333 | 443.0 | change in GAG release ([2]; Dog 2, OSM treated cultures): not ALA or DHA significantly decreased
3 | CC/C=C\C/C=C\C/C=C\C/C=C\C/C=C\C/C=C\CCC(=O)O [DHA, Docosahexaenoic acid] | 503.667 | 564.333 | .640 μg/mg wet weight | .843 μg/mg wet weight | 8.567 | 6.073 | 1.903 | 1.55 | 11.667 | 11.630 | 21.093 | 19.457 | 2.343 | 2.307 | 24.967 | 16.4 | 11.28 | 11.3 | 156.0 | 123.333 | –
